The record followed here is patent US20240368566A1, “PYK2-DERIVED PEPTIDES FOR INHIBITING INVADOPODIA-MEDIATED CANCER METASTASIS” (BAR-ILAN UNIVERSITY, priority 2023, published 2024).

For one assay, the system named is 4T1 cells. In words: Spontaneous lung metastasis clonogenic assay in 4T1 xenograft mouse model. The assay is classed as in vivo, BALB/c female mice. Particulars: 10 mg/kg once a day for eight days, intraperitoneal injection, HIV-TAT fused peptide; versus scrambled control. The procedure: All experimental procedures were conducted following the Federation of Laboratory Animal Science Association (FELSA) and were approved by the Bar-Ilan University animal use and care committee. Mouse xenograft tumors were generated by injecting 10^6 4T1 cells resuspended in 20% collagen I (BD Biosciences, Franklin Lakes, NJ, USA) in PBS into the lower-left mammary gland of 8-week-old BALB/c female mice. […] 4T1 cells have intrinsic resistance to 6-thioguanine, which enables precise quantification of metastatic cells, even when they are disseminated at sub-microscopic levels at distant organs, upon excision and digestion of selected organs. The clonogenic assay is based on a principle by which one colony represents one metastatic cell. Briefly, spontaneous lung metastasis was measured in BALB/c mice bearing orthotopic 4T1 tumors of equal size (1-1.2 cm in diameter). Lungs were excised and minced and plated in RPMI/10% FBS in the presence of 6-thioguanine to select for tumor cells only. Cells were plated in a 5% CO2 incubator at 37° C. for 14 days to form 4T1 colonies. On day 14 after plating, the medium was removed from dishes, and colonies were fixed in 4% paraformaldehyde for one hour at room temperature. Colonies were then stained in 2% crystal violet solution and thoroughly washed with PBS. Plates were allowed to air dry, and colonies in each plate were quantified. […]

The test system of assay [1] is interaction between Pyk2 and cortactin in invadopodia. In words: Acceptor photobleaching FRET assay. Type of assay: cell-based, human. Particulars: 0.1, 1, 5 μM peptide; mature matrix-degrading invadopodia. The protocol: Acceptor photobleaching experiments were performed as described in Genna et al., 2018 (supra). In brief, cortactin-TagRFP MDA-MB-231 cells were plated on Alexa 405 gelatin in a medium containing Pyk2-PRR or scrambled control peptides at 0.1, 1, and 5 μM concentration, fixed, and immunostained with pY402-Pyk2/Alexa Fluor 488-goat anti-rabbit (donor) and cortactin/Alexa Fluor 555-goat anti-mouse (acceptor). As a control, cells were stained with Tks5/Alexa Fluor 488-goat anti-rabbit (donor) and cortactin/Alexa Fluor 555-goat anti-mouse (acceptor). Co-localization of cortactin with degradation holes in Alexa 405-labeled gelatin was used to identify mature degrading invadopodia. For all FRET experiments, cells were imaged in PBS at room temperature on a laser-scanning inverted confocal microscope (Zeiss LSM780; 60×, NA 1.4, oil objective). A region of interest surrounding invadopodia was bleached using 100% 561-nm laser power (acceptor channel), and images were acquired in both the 488 nm and the 561 nm channels before and after bleaching. FRET efficiency was calculated as the E=1−(donor pre/donor post) in background-subtracted images and was corrected for fluctuations in laser power and donor bleaching in ImageJ.

The test system of assay [2] is MDA-MB-231 cells. Put plainly: Invadopodium precursor formation assay. Conditions: 4 h, 0.1, 1 or 5 μM peptide. Type of assay: cell-based, human. The protocol:
The invadopodium precursor formation assay was performed as described in Genna et al., 2018 (supra). Briefly, gelatin was conjugated to Alexa 405 dye (Thermo Fisher Scientific). MatTek dishes were treated with 1 N HCl and coated with 50 μg/ml poly-L-lysine. A 0.2% gelatin solution was prepared in PBS, and a 1:20 mixture of Alexa 405-labeled gelatin/unlabeled gelatin was warmed to 37° C. before addition to the poly-L-lysine coated plates. Gelatin was cross-linked with 0.01% glutaraldehyde followed by quenching with 5 mg/ml sodium borohydride. 125,000 MDA-MB-231 cells were plated on Alexa 405-labeled gelatin plates in the presence of 0.1, 1, or 5 μM of Pyk2-PRR peptides or scrambled control for 4 h. At the end of incubation, cells were fixed in 3.7% paraformaldehyde, permeabilized with 0.1% Triton X-100, blocked with 1% FBS, 1% BSA in PBS, and labeled with anti-Tks5 and anti-cortactin. Images were acquired using an inverted fluorescent microscope (Leica AF6000; 63×, NA 1.4, oil objective, Leica LAS AF acquisition software) (Wetzlar, Germany) equipped with an ORCA-Flash 4.0 V2 digital CMOS camera (Hamamatsu Photonics, Shizuoka, Japan).

Assay [3] deals with MDA-MB-231 cells. Put plainly: ECM degradation assay. The assay is classed as cell-based, human. Conditions: 24 h on fluorescent fibronectin/gelatin matrix; compared to control peptide. The procedure: The in vitro matrix degradation assay was performed as described in Genna et al., 2018 (supra). Briefly, MatTek dishes were treated with 2.5% gelatin/2.5% sucrose, cross-linked with 0.5% glutaraldehyde, treated with 10 μg/ml of fluorescently labeled fibronectin (Alexa 568; Invitrogen, Thermo Fischer Scientific), and then with 1 mg/ml NaBH4 in PBS. 125,000 cells were plated on the fibronectin/gelatin matrix in Pyk2-PRR or control peptides and allowed to degrade for 24 h. Cells were then fixed in 3.7% paraformaldehyde, and random fields were imaged using an inverted fluorescent microscope (Leica AF6000; 40×, NA 1.3, oil objective). ECM degradation was analyzed by quantifying the average degraded area in pixels per field using ImageJ.

In assay [4] the target is T1, cortactin-SH3 domain (mouse cortactin SH3 domain, GenBank ID U03184; nucleotides 1468-1641) (mouse, UniProt Q60598 490-546, isotopically labeled (15N, 13C and/or 2H) for NMR).
T1 construct: domain: SH3 domain; also called purified cortactin-SH3
T1 sequence (Q60598 490-546 limits assumed, one chain of several): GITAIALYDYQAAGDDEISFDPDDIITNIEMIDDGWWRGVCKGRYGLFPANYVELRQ
Put plainly: NMR chemical shift titration.

Assay [5] concerns the target T1, cortactin-SH3 domain (mouse cortactin …). Put plainly: NMR chemical shift titration (1H,15N-HSQC), unlabeled peptide into 15N-SH3.

Where no end group is shown, it is not given here.

For “TAFQEPAPKASQAQYRPPP [Pyk2 super-mutant, TAFQEPAPKASQAQYRPPP]”, in the assay on 4T1 cells, the “lung metastases (6-thioguanine-resistant colonies)” value was “no significant differences in colony number”. In addition, the “interaction between Pyk2 and cortactin in invadopodia (FRET)” value in assay [1] is reported as “does not significantly inhibit”. For the same molecule, the “mature, matrix-degrading invadopodia” value in the assay with MDA-MB-231 cells [2] (co-localization with degradation regions) is listed as “small but significant reduction”. In addition, in the assay with MDA-MB-231 cells [2] (cortactin and Tks5 co-localization), the immature invadopodium precursors result was “no significant effect”. Also, in the assay on MDA-MB-231 cells [3], the “matrix degradation (degradation area)” value is listed as “small but significant reduction”.

B1: Pyk2-PRR2 peptide (SEQ ID NO: 1) (peptide)
peptide: TAFQEPPPKPSRPKYRPPP
notes: Unlabeled synthetic peptide as used in the NMR experiments; Positions count on UniProt Q14289
B1: the “fold higher affinity than Pyk2-PRR3” value in assay [4] was 16 fold. In addition, the Kd in assay [5] was found to be 40 µM.

The term Kd denotes the equilibrium constant for the complex coming apart.
